This passage reports % of control, % of inhibition and % of engagement results from ChEMBL document CHEMBL5465560, “Selectivity Literature for EUbOPEN Chemogenomic Library” (2024).

The structures appear in SMILES notation.

Assay [1] has as its target Tyrosine-protein kinase JAK2 (Homo sapiens, UniProt O60674). Description: Selectivity interaction (KinomeScan (DiscoverX)) EUB0000595a JAK2. To be noted: at 10 µM.
Assay [2] has as its target Ribosomal protein S6 kinase beta-2 (Homo sapiens) (UniProt Q9UBS0). In words: Selectivity interaction (ActivX KiNativ screen (ex vivo kinase selectivity in human PBMCs)) EUB0001619a RPS6KB2. The assay is classed as cell-based. To be noted: PBMC, at 1 µM.
The target of assay [3] is Serine/threonine-protein kinase PAK 6 (Homo sapiens) (UniProt Q9NQU5). In words: Selectivity interaction (KinomeScan (DiscoverX)) EUB0000666a PAK6. Conditions: at 10 µM.
The target of assay [4] is cAMP-dependent protein kinase catalytic subunit alpha (Homo sapiens, UniProt P17612). To be noted: at 10 µM.
The target of assay [5] is Calcium/calmodulin-dependent protein kinase type 1D (Homo sapiens) (UniProt Q8IU85). Description: Selectivity interaction (ActivX KiNativ screen (kinase selectivity in THP-1 cell lysates)) EUB0000639a CAMK1D. The assay is classed as subcellular. Conditions: lysate, at 0.01 µM.
In assay [6] the target is Cyclin-dependent kinase 7 (Homo sapiens, UniProt P50613). Description: Selectivity interaction (ActivX KiNativ screen (kinase selectivity in THP-1 cell lysates)) EUB0000639a CDK7. Type of assay: subcellular. To be noted: lysate.
The target in assay [7] is Serine/threonine-protein kinase MARK2 (Homo sapiens) (UniProt Q7KZI7). In words: Selectivity interaction (ActivX KiNativ screen (kinase selectivity in THP-1 cell lysates)) EUB0000639a MARK2. The assay is classed as subcellular. To be noted: lysate, at 0.2 µM.
Assay [8] deals with MAP kinase-interacting serine/threonine-protein kinase 1 (Homo sapiens) (UniProt Q9BUB5). Description: Selectivity interaction (KinomeScan (DiscoverX)) EUB0000045b MKNK1.
Assay [9] addresses T1, Mitogen-activated protein kinase 12 (Homo sapiens) (UniProt P53778).
T1 sequence (whole entry): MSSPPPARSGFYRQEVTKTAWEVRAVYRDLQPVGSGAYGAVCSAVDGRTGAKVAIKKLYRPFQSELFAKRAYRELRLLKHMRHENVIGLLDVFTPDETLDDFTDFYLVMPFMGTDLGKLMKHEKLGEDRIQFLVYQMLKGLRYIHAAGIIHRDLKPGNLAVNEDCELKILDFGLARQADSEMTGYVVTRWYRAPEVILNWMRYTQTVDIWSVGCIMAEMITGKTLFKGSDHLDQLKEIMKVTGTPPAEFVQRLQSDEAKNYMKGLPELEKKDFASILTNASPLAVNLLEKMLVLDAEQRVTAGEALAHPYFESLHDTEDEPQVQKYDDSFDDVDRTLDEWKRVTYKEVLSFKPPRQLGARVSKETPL
Description: Selectivity interaction (Kinase panel (literature)) EUB0001199aCl MAPK12. To be noted: at 1 µM.

Assay [10] concerns the target T2, Serine/threonine-protein kinase Nek2 (Homo sapiens) (UniProt P51955).
T2 sequence (whole entry): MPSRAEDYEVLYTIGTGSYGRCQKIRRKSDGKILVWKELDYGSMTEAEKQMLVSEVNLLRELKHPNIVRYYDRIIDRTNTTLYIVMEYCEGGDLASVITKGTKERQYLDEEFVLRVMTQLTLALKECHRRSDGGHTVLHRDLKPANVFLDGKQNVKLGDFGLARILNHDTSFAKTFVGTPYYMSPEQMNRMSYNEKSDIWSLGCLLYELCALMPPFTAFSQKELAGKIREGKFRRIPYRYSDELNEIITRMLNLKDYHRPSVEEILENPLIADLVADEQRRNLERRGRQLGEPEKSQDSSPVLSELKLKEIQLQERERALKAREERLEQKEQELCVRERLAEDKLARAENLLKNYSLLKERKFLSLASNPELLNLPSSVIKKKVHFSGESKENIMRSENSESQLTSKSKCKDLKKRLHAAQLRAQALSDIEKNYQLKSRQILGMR
In words: Selectivity interaction (KinomeScan (DiscoverX)) EUB0001049a NEK2. To be noted: at 1 µM.

Assay [11] deals with Citron Rho-interacting kinase (Homo sapiens) (UniProt O14578). Description: Selectivity interaction (KinomeScan (DiscoverX)) EUB0000655a CIT. Conditions: at 10 µM.
The target of assay [12] is Dual specificity protein kinase CLK3 (Homo sapiens, UniProt P49761). In words: Selectivity interaction (KinomeScan (DiscoverX)) EUB0000655a CLK3. Conditions: at 10 µM.
Assay [13] concerns the target G protein-coupled receptor kinase 4 (Homo sapiens) (UniProt P32298). In words: Selectivity interaction (KinomeScan (DiscoverX)) EUB0000655a GRK4. To be noted: at 10 µM.
For assay [14], the target named is Ribosomal protein S6 kinase alpha-1 (Homo sapiens, UniProt Q15418). Description: Selectivity interaction (KinomeScan (DiscoverX)) EUB0000655a RPS6KA1. To be noted: at 10 µM.
For assay [15], the target named is Cyclin-dependent kinase 8 (Homo sapiens, UniProt P49336). Description: Selectivity interaction (KinomeScan (DiscoverX)) EUB0000618a CDK8. Conditions: at 10 µM.
For assay [16], the target named is T3, Serine/threonine-protein kinase Nek11 (Homo sapiens) (UniProt Q8NG66).
T3 sequence (whole entry): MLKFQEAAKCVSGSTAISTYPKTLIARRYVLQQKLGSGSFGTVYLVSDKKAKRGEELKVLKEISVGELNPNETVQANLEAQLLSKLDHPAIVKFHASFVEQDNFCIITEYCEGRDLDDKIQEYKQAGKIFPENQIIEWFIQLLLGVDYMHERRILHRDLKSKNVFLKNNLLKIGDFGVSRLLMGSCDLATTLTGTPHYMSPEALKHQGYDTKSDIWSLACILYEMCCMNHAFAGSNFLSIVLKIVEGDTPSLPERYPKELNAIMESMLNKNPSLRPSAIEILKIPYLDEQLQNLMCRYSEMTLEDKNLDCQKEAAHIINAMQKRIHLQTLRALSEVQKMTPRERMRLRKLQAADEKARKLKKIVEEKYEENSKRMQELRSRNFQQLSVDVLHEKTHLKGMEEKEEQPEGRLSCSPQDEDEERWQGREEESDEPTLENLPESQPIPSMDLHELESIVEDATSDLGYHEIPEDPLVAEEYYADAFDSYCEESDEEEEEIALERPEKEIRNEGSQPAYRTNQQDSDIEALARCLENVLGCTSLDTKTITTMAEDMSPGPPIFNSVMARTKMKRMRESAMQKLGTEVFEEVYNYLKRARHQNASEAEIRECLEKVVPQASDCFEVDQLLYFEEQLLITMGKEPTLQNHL
Description: Selectivity interaction (KinomeScan (DiscoverX)) EUB0000618a NEK11. To be noted: at 10 µM.

Assay [17] has as its target Phosphatidylinositol 4,5-bisphosphate 3-kinase catalytic subunit beta isoform (Homo sapiens) (UniProt P42338). Description: Selectivity interaction (KinomeScan (DiscoverX)) EUB0000092b PIK3CB. Conditions: at 10 µM.
For assay [18], the target named is Calcium/calmodulin-dependent protein kinase kinase 2 (Homo sapiens) (UniProt Q96RR4). Description: Selectivity interaction (Kinase panel (KiNativ target engagement assay in Jurkat cells)) EUB0001635a CAMKK2. Conditions: Selectivity number of off-targets 0.0, Selectivity number of targets 233.0, Source Knowledge https://www.sciencedirect.com/science/article/pii/S2451945619300674?via%3Dihub, at 1 µM. Type of assay: cell-based.

Cyclin-dependent kinase 7, sequence (P50613 whole entry): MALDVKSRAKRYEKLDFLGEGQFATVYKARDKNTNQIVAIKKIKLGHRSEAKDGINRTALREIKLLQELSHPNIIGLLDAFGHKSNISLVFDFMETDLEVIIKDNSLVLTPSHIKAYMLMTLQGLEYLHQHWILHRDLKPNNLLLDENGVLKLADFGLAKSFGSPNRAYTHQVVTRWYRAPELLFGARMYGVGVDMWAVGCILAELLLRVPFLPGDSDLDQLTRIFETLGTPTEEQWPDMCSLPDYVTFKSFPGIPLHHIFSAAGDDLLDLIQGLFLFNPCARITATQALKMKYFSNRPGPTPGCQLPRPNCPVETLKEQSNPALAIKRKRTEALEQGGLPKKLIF
MAP kinase-interacting serine/threonine-protein kinase 1 (Homo sapiens), sequence (Q9BUB5 whole entry, looked up): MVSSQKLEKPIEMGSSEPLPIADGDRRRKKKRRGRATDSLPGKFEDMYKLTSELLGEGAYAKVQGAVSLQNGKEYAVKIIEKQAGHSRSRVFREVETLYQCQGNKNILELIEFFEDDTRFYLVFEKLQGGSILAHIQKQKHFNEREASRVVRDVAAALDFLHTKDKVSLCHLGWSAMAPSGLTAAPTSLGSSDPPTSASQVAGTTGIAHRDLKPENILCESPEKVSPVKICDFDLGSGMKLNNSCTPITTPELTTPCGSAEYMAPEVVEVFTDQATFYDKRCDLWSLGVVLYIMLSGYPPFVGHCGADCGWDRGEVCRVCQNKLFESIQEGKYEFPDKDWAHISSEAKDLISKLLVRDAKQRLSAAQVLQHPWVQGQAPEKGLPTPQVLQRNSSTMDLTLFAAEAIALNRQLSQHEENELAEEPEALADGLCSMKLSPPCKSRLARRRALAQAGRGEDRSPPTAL
Ribosomal protein S6 kinase alpha-1, sequence (Q15418 whole entry): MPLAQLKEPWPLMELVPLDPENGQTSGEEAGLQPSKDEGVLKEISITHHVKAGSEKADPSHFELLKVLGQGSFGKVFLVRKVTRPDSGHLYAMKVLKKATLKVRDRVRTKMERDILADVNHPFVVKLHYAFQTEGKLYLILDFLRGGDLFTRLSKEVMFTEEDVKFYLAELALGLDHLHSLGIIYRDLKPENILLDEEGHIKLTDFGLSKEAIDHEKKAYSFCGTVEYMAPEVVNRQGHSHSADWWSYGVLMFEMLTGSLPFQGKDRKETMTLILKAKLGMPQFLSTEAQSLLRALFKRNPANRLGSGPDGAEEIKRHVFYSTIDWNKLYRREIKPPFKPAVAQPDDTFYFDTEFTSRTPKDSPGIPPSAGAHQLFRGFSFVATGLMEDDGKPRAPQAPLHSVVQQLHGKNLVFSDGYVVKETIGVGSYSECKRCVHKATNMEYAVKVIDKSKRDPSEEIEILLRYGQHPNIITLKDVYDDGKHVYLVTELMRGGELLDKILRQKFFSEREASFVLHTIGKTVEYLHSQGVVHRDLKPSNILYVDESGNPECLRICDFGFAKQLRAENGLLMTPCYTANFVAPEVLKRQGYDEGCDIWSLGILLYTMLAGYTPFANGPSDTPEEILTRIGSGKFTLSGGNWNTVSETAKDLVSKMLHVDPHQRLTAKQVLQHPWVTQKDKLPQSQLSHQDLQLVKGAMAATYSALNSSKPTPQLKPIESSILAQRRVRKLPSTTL
Cyclin-dependent kinase 8, sequence (P49336 whole entry): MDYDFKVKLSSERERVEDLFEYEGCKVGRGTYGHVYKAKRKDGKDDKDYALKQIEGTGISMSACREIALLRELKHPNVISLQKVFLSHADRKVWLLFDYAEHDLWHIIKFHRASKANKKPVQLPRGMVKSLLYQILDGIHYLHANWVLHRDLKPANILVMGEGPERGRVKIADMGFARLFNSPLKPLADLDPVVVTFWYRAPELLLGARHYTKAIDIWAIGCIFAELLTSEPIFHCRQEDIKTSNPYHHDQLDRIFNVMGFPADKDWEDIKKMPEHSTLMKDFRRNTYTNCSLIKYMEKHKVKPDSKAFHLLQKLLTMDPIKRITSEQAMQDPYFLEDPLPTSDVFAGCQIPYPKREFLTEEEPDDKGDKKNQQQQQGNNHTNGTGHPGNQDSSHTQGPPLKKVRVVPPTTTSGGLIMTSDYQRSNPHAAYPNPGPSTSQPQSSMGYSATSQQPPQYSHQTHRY
Dual specificity protein kinase CLK3, sequence (P49761 whole entry, looked up): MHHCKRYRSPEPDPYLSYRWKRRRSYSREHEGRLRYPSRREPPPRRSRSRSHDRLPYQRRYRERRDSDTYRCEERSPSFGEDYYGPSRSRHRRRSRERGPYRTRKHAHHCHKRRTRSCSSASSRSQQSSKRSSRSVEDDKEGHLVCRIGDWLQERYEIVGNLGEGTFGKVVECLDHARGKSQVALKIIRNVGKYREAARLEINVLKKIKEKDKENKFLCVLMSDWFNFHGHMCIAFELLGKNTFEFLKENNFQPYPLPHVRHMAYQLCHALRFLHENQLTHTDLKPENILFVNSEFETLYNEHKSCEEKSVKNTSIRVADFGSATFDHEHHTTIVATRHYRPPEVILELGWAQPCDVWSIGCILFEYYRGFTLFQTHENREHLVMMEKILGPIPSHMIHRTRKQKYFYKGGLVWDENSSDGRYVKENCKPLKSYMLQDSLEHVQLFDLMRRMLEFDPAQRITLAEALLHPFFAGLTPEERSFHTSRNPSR
Calcium/calmodulin-dependent protein kinase type 1D (Homo sapiens), sequence (Q8IU85 whole entry, looked up): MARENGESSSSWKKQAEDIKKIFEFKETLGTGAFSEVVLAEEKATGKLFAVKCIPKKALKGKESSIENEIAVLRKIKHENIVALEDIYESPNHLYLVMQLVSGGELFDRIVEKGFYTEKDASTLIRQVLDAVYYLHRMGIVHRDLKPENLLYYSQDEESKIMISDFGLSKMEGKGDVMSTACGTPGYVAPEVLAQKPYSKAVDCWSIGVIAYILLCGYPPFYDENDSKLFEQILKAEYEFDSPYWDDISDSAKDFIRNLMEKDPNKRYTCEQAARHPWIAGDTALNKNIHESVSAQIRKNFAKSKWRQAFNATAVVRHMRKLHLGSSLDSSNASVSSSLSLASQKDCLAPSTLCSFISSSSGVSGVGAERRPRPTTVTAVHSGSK
Citron Rho-interacting kinase (Homo sapiens), sequence (O14578 whole entry): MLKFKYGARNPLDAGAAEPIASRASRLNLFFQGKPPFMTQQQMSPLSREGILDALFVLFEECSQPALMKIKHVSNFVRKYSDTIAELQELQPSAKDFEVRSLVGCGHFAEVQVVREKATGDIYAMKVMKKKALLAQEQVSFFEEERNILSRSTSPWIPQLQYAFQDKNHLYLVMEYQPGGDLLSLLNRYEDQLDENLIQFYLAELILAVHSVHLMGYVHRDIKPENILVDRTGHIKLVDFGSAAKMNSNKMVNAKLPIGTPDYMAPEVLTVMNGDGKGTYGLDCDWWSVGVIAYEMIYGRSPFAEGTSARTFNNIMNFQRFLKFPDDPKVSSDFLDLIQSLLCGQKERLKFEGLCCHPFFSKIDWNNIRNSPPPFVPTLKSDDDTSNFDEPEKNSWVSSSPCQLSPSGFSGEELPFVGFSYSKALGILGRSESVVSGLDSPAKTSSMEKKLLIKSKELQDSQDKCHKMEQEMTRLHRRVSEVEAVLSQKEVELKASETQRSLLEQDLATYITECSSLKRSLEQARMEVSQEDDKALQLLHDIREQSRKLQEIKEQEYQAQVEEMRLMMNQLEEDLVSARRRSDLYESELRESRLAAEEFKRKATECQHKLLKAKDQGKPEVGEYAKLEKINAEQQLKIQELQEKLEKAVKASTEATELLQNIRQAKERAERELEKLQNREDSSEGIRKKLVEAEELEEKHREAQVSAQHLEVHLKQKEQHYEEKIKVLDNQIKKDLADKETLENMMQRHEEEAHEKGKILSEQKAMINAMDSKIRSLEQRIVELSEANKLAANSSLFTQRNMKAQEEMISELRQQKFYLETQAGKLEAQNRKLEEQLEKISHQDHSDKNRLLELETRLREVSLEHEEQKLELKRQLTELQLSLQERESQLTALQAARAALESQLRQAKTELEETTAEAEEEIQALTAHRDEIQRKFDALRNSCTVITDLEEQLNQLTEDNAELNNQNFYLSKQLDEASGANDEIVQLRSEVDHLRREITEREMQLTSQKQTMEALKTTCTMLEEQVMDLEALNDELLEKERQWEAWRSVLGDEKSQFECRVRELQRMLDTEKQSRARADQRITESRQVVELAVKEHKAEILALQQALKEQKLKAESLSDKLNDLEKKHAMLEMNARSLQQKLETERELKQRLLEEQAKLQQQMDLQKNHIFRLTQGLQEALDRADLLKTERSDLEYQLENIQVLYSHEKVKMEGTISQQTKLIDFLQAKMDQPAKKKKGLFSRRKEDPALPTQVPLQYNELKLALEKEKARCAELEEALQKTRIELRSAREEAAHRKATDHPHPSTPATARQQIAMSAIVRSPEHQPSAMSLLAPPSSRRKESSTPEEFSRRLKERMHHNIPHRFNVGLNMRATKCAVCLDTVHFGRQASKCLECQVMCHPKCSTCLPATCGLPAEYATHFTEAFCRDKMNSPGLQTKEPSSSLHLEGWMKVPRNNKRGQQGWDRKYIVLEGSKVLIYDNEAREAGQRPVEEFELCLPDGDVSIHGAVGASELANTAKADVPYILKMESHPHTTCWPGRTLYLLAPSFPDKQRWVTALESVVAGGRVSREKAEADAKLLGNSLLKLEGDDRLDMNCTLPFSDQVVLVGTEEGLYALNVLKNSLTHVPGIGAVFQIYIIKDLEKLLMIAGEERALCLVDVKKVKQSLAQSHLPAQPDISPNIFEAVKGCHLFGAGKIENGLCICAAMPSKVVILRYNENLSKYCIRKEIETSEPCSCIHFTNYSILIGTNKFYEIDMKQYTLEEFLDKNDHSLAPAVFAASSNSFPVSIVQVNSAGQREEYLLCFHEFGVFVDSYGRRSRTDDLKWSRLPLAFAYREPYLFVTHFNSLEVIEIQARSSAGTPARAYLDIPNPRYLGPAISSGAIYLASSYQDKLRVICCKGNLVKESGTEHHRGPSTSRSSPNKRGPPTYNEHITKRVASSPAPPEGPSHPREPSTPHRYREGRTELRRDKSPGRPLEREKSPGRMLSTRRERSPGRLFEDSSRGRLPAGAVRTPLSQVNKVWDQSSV

In turn, `COCC(=O)NC/C=C/c1ccc2ncnc(Nc3ccc(Oc4ccc(C)nc4)c(C)c3)c2c1` [CP-724714] gave a % of control in assay [1] of 100%.

Regarding `N#Cc1cccc(-c2c[nH]c3ncnc(N4CCOCC4)c23)c1`, in assay [2], the % of inhibition was 19%.

`O=C(NOC[C@H](O)CO)c1ccc(F)c(F)c1Nc1ccc(I)cc1F` gave a % of control in assay [3] of 94%.

In the case of `Cc1cc([C@@H](C)Nc2ccccc2C(=O)O)c2nc(N3CCOCC3)cc(=O)n2c1` [AZD-6482], in assay [4], the % of control came to 100%.

`CC[C@@H]1[C@H](F)C(=O)N[C@@H]1COc1nccc2cc(C(N)=O)c(OC)cc12` [ZIMLOVISERTIB]: the % of inhibition was -1.8% in assay [5]; -17% in [6] (at 0.01 µM); -0.9% in assay [6] (at 0.04 µM); -1.1% in assay [6] (at 0.2 µM); 20.9% in assay [6] (at 1 µM); 60% in [6] (at 5 µM). In addition, the % of inhibition in assay [7] stood at 2.7%.

On to `C=CC(=O)Nc1cc(-n2c(=O)ccc3cnc4ccc(-c5ccc(NS(C)(=O)=O)cc5)cc4c32)ccc1C`, for which the % of control in assay [8] (at 1 µM) and in [8] (at 10 µM) was 100% throughout.

As for `CN1Cc2nccc(-c3cn(C)nc3-c3ccc(F)cc3)c2C1=O`, the % of inhibition in assay [9] came out at 10%.

Turning to `COc1cc(Nc2nc(C)cc(-c3cnn4nc(OC)ccc34)n2)cc(C(F)(F)F)c1`, the % of control in assay [10] came to 98%.

Take `CN(C)CCOc1ccc(-c2nc(-c3ccncc3)c(-c3ccc4c(c3)CC/C4=N\O)[nH]2)cc1`: the % of control in assay [11] came out at 0.8%; in [12], 98%; in [13] it was 100%; in [14] it was 91%.

For the compound `O[C@H]1CC[C@H](Nc2ncc3nc(Nc4c(F)cc(F)cc4F)n([C@H]4CCOC4)c3n2)CC1`, the results for the % of control in assay [15] and in assay [16] were 100% and 90%, respectively.

`CCC(=O)N1CCN(c2ccc(-n3c(=O)ccc4cnc5ccc(-c6cnc7ccccc7c6)cc5c43)cc2C(F)(F)F)CC1`: the % of control in assay [17] amounted to 65%.

On to `C=CC(=O)Nc1ccc(C(=O)Nc2[nH]nc3c2CN(C(=O)N[C@H](CN(C)C)c2ccccc2)C3(C)C)cc1`, for which, in [18], the % of engagement was -3.1%.
